Reference: US20240308996A1, “PYRIDOPYRIDINES AND DERIVATIVES THEREOF AS SELECTIVE KINASE INHIBITORS” (University of Sharjah, priority 2023, published 2024)

Experiments:
CCRF-CEM = assay: NCI-60 cell line panel: CCRF-CEM; format: cell-based; details: Leukemia
Experimental: (§1) It was carried out at the NCI, Bethesda, MD, USA, utilizing their standard protocol.

MOLT-4 = assay: NCI-60 cell line panel: MOLT-4; format: cell-based; design: TGI: unit not given here; details: Leukemia, total growth inhibition
Experimental: as §1

SR = assay: NCI-60 cell line panel: SR; format: cell-based; details: Leukemia, total growth inhibition
Experimental: as §1

A549/ATCC = assay: NCI-60 cell line panel: A549/ATCC; format: cell-based; details: Non-Small Cell Lung Cancer, total growth inhibition
Experimental: as §1

EKVX = assay: NCI-60 cell line panel: EKVX; format: cell-based; details: Non-Small Cell Lung Cancer, total growth inhibition, in µM (unit assumed)
Experimental: as §1

HOP-62 = assay: NCI-60 cell line panel: HOP-62; format: cell-based; details: Non-Small Cell Lung Cancer
Experimental: as §1

NCI-H226 = assay: NCI-60 cell line panel: NCI-H226; format: cell-based; details: Non-Small Cell Lung Cancer
Experimental: as §1

NCI-H23 = assay: NCI-60 cell line panel: NCI-H23; format: cell-based; details: Non-Small Cell Lung Cancer
Experimental: as §1

NCI-H322M = assay: NCI-60 cell line panel: NCI-H322M; format: cell-based; details: Non-Small Cell Lung Cancer, total growth inhibition
Experimental: as §1

NCI-H460 = assay: NCI-60 cell line panel: NCI-H460; format: cell-based; details: Non-Small Cell Lung Cancer, total growth inhibition
Experimental: as §1

NCI-H522 = assay: NCI-60 cell line panel: NCI-H522; format: cell-based; design: TGI: unit not given here; details: Non-Small Cell Lung Cancer
Experimental: as §1

COLO 205 = assay: NCI-60 cell line panel: COLO 205; format: cell-based; design: TGI: unit not given here; details: Colon Cancer
Experimental: as §1

HCT-15 = assay: NCI-60 cell line panel: HCT-15; format: cell-based; details: Colon Cancer, total growth inhibition
Experimental: as §1

HT29 = assay: NCI-60 cell line panel: HT29; format: cell-based
Experimental: as §1

SW-620 = assay: NCI-60 cell line panel: SW-620; format: cell-based; details: Colon Cancer, total growth inhibition
Experimental: as §1

SF-268 = assay: NCI-60 cell line panel: SF-268; format: cell-based; details: CNS Cancer, total growth inhibition
Experimental: as §1

SNB-19 = assay: NCI-60 cell line panel: SNB-19; format: cell-based; details: CNS Cancer, total growth inhibition
Experimental: as §1

SNB-75 = assay: NCI-60 cell line panel: SNB-75; format: cell-based; design: TGI: unit not given here; details: CNS Cancer, total growth inhibition
Experimental: as §1

U251 = assay: NCI-60 cell line panel: U251; format: cell-based; design: TGI: unit not given here
Experimental: as §1

MALME-3M = assay: NCI-60 cell line panel: MALME-3M; format: cell-based; details: Melanoma
Experimental: as §1

M14 = assay: NCI-60 cell line panel: M14; format: cell-based; details: Melanoma
Experimental: as §1

SK-MEL-2 = assay: NCI-60 cell line panel: SK-MEL-2; format: cell-based; design: TGI: unit not given here; details: Melanoma
Experimental: as §1

SK-MEL-28 = assay: NCI-60 cell line panel: SK-MEL-28; format: cell-based; details: Melanoma, total growth inhibition
Experimental: as §1

UACC-257 = assay: NCI-60 cell line panel: UACC-257; format: cell-based; details: Melanoma
Experimental: as §1

IGROV1 = assay: NCI-60 cell line panel: IGROV1; format: cell-based; details: Ovarian Cancer, total growth inhibition
Experimental: as §1

OVCAR-3 = assay: NCI-60 cell line panel: OVCAR-3; format: cell-based; details: Ovarian Cancer, total growth inhibition
Experimental: as §1

OVCAR-4 = assay: NCI-60 cell line panel: OVCAR-4; format: cell-based; details: Ovarian Cancer, total growth inhibition, in µM (unit assumed)
Experimental: as §1

OVCAR-5 = assay: NCI-60 cell line panel: OVCAR-5; format: cell-based; details: Ovarian Cancer, total growth inhibition
Experimental: as §1

OVCAR-8 = assay: NCI-60 cell line panel: OVCAR-8; format: cell-based; details: Ovarian Cancer, total growth inhibition, in µM (unit assumed)
Experimental: as §1

NCI/ADR-RES = assay: NCI-60 cell line panel: NCI/ADR-RES; format: cell-based; design: TGI: unit not given here; details: Ovarian Cancer, total growth inhibition
Experimental: as §1

SK-OV-3 = assay: NCI-60 cell line panel: SK-OV-3; format: cell-based; details: Ovarian Cancer, total growth inhibition
Experimental: as §1

786-0 = assay: NCI-60 cell line panel: 786-0; format: cell-based; details: Renal Cancer, total growth inhibition
Experimental: as §1

A498 = assay: NCI-60 cell line panel: A498; format: cell-based; details: Renal Cancer, total growth inhibition
Experimental: as §1

ACHN = assay: NCI-60 cell line panel: ACHN; format: cell-based; details: Renal Cancer, total growth inhibition
Experimental: as §1

CAKI-1 = assay: NCI-60 cell line panel: CAKI-1; format: cell-based; design: TGI: unit not given here; details: Renal Cancer, total growth inhibition
Experimental: as §1

RXF 393 = assay: NCI-60 cell line panel: RXF 393; format: cell-based; details: Renal Cancer, total growth inhibition
Experimental: as §1

SN12C = assay: NCI-60 cell line panel: SN12C; format: cell-based; details: Renal Cancer, total growth inhibition
Experimental: as §1

TK-10 = assay: NCI-60 cell line panel: TK-10; format: cell-based; details: Renal Cancer
Experimental: as §1

UO-31 = assay: NCI-60 cell line panel: UO-31; format: cell-based; design: TGI: unit not given here; details: Renal Cancer, total growth inhibition
Experimental: as §1

PC-3 = assay: NCI-60 cell line panel: PC-3; format: cell-based; details: Prostate Cancer
Experimental: as §1

DU-145 = assay: NCI-60 cell line panel: DU-145; format: cell-based; details: Prostate Cancer, total growth inhibition
Experimental: as §1

MCF7 = assay: NCI-60 cell line panel: MCF7; format: cell-based; details: Breast Cancer, total growth inhibition
Experimental: as §1

MDA-MB-231/ATCC = assay: NCI-60 cell line panel: MDA-MB-231/ATCC; format: cell-based; details: Breast Cancer
Experimental: as §1

HS 578T = assay: NCI-60 cell line panel: HS 578T; format: cell-based; details: Breast Cancer, HS 578T; total growth inhibition
Experimental: as §1

BT-549 = assay: NCI-60 cell line panel: BT-549; format: cell-based; details: Breast Cancer, total growth inhibition
Experimental: as §1

MDA-MB-468 = assay: NCI-60 cell line panel: MDA-MB-468; format: cell-based; details: Breast Cancer, total growth inhibition
Experimental: as §1

panel of 50 kinases = assay: 50-kinase panel; format: biochemical
HepG2 = assay: MTT assay, HepG2 HCC cell line; format: cell-based; details: Homo sapiens, 48 h, mean of triplicate assays ± SEM
Experimental: (§2) Two HCC cell lines (Hep3B and HepG2) were used for screening the antiproliferative activity of the synthesized compounds. The cell lines were obtained from the European Collection of Cell Cultures (ECACC, UK) and maintained in Dulbecco's Modified Eagle Medium (DMEM: Sigma-Aldrich) supplemented with 10% fetal bovine serum (FBS) and 1% penicillin/streptomycin and incubated at 37° C. in a 5% CO2 air atmosphere. In addition, WI-38 normal cell line was used to investigate the safety of these compounds.
(§3) MTT assay was conducted to calculate the IC50 of the compounds following the reported procedure . Briefly, the cells were seeded in 96-well tissue culture plates with a density of 5×10^4 cells/well and incubated overnight at 37° C. in a 5% CO2 air atmosphere. […] DMSO was used as a negative control. After 48 h, the media were aspirated, and replaced with media containing 0.5 mg/mL of MTT tetrazolium dye (Sigma-Aldrich) for 2 h at 37° C. Finally, the media were removed and 200 μL of DMSO was added to solubilize the formazan crystals. Absorbance was then measured at 570 nm using Varioskan Flash multimode plate reader (Thermo Scientific, Massachusetts, USA).

Hep3B = assay: MTT assay, Hep3B HCC cell line; format: cell-based; details: Homo sapiens, 48 h, mean of triplicate assays ± SEM
Experimental: as §2, §3

[1] = tested on: hepatocellular carcinoma cell lines; assay: Screening against HCC cell lines; format: cell-based
Experimental: The target compounds were tested against hepatocellular carcinoma cell lines. Compounds 1j. 13a. 13b. 13c. […] The mean inhibition percentage values are illustrated in Table 9.
as §2
MTT assay was conducted to calculate the IC50 of the compounds following the reported procedure . Briefly, the cells were seeded in 96-well tissue culture plates with a density of 5×10^4 cells/well and incubated overnight at 37° C. in a 5% CO2 air atmosphere. After that, cells were treated with the newly synthesized compounds or sorafenib as a positive control. DMSO was used as a negative control. After 48 h, the media were aspirated, and replaced with media containing 0.5 mg/mL of MTT tetrazolium dye (Sigma-Aldrich) for 2 h at 37° C. Finally, the media were removed and 200 μL of DMSO was added to solubilize the formazan crystals. Absorbance was then measured at 570 nm using Varioskan Flash multimode plate reader (Thermo Scientific, Massachusetts, USA).

CNC(=O)c1cc(Oc2ccc(NC(=O)Nc3ccc(Cl)c(C(F)(F)F)c3)cc2)ccn1 [Sorafenib, reference compound]
IC50 (CCRF-CEM; Homo sapiens): 2 µM
TGI (CCRF-CEM; total growth inhibition): 5.01 µM
TGI (MOLT-4): 100
TGI (SR): 63.1 µM
TGI (A549/ATCC): 7.94 µM
TGI (EKVX): 19.95
IC50 (HOP-62; Homo sapiens): 2 µM
TGI (HOP-62; total growth inhibition): 3.16 µM
IC50 (NCI-H226; Homo sapiens): 2 µM
TGI (NCI-H226; total growth inhibition): 3.16 µM
IC50 (NCI-H23; Homo sapiens): 2 µM
TGI (NCI-H23; total growth inhibition): 5.01 µM
TGI (NCI-H322M): 5.01 µM
TGI (NCI-H460): 5.01 µM
IC50 (NCI-H522; Homo sapiens): 2 µM
TGI (NCI-H522; total growth inhibition): 5.01
TGI (COLO 205; total growth inhibition): 3.16
IC50 (COLO 205; Homo sapiens): 2 µM
TGI (HCT-15): 3.16 µM
TGI (HT29; Colon Cancer, total growth inhibition): 5.01 µM
IC50 (HT29; Homo sapiens, HT-29, Colon Cancer): 2 µM
TGI (SW-620): 5.01 µM
TGI (SF-268): 3.98 µM
TGI (SNB-19): 3.98 µM
TGI (SNB-75): 3.98
TGI (U251; CNS Cancer, total growth inhibition): 3.16
IC50 (U251; Homo sapiens, U-251, CNS Cancer): 2 µM
IC50 (MALME-3M; Homo sapiens): 2 µM
TGI (MALME-3M; total growth inhibition, in µM (unit assumed)): 39.81
IC50 (M14; Homo sapiens): 2 µM
TGI (M14; total growth inhibition): 3.16 µM
IC50 (SK-MEL-2; Homo sapiens): 2 µM
TGI (SK-MEL-2; total growth inhibition): 6.31
TGI (SK-MEL-28): 2.51 µM
IC50 (UACC-257; Homo sapiens): 2 µM
TGI (UACC-257; total growth inhibition): 5.01 µM
TGI (IGROV1): 10 µM
TGI (OVCAR-3): 3.98 µM
TGI (OVCAR-4): 25.12
TGI (OVCAR-5): 6.31 µM
TGI (OVCAR-8): 12.59
TGI (NCI/ADR-RES): 7.94
TGI (SK-OV-3): 5.01 µM
TGI (786-0): 5.01 µM
TGI (A498): 3.16 µM
TGI (ACHN): 10 µM
TGI (CAKI-1): 12.59
TGI (RXF 393): 5.01 µM
TGI (SN12C): 3.16 µM
IC50 (TK-10; Homo sapiens): 3.98 µM
TGI (TK-10; total growth inhibition): 10 µM
TGI (UO-31): 6.31
IC50 (PC-3; Homo sapiens): 2 µM
TGI (PC-3; total growth inhibition): 5.01 µM
TGI (DU-145): 7.94 µM
TGI (MCF7): 7.94 µM
TGI (MDA-MB-231/ATCC; total growth inhibition): 3.16 µM
IC50 (MDA-MB-231/ATCC; Homo sapiens): 1.26 µM
TGI (HS 578T): 3.98 µM
TGI (BT-549): 3.98 µM
TGI (MDA-MB-468): 7.94 µM
number of kinases inhibited (more than 50% inhibition) (panel of 50 kinases): 22 kinases

CNC(=O)c1cc(-c2ccc(NC(=S)Nc3cc(C(F)(F)F)cc(C(F)(F)F)c3)cc2)nc2cccnc12 [Compound 1m, 2-(4-(3-(3,5-Bis(trifluoromethyl)phenyl)thioureido)phenyl)-N-methyl-1,5-naphthyridine-4-carboxamide]
IC50 (HepG2): 5.74 ± 0.2 µM
IC50 (Hep3B): 6.56 ± 0.31 µM
inhibition activity against hepatocellular carcinoma cell lines compared with sorafenib [1]: inhibition activity comparable to sorafenib

O=C(Nc1ccc(-c2cc(C(=O)Nc3ccccn3)c3ncccc3n2)cc1)Nc1ccc(F)c(C(F)(F)F)c1 [Compound 1j, 2-(4-(3-(4-Fluoro-3-(trifluoromethyl)phenyl)ureido)phenyl)-N-(pyridin-2-yl)-1,5-naphthyridine-4-carboxamide]
IC50 (HepG2): 3.68 ± 0.22 µM
IC50 (Hep3B): 3.87 ± 0.13 µM
inhibition activity against hepatocellular carcinoma cell lines compared with sorafenib [1]: higher inhibition activity than sorafenib

CNC(=O)c1cc(-c2ccc(NC(=O)Nc3ccc(N4CCOCC4)c(C(F)(F)F)c3)cc2)nc2cccnc12 [Compound 13a, N-Methyl-2-(4-(3-(4-morpholino-3-(trifluoromethyl)phenyl)ureido)phenyl)-1,5-naphthyridine-4-carboxamide]
IC50 (HepG2): 1.27 ± 0.14 µM
IC50 (Hep3B): 1.89 ± 0.18 µM
inhibition activity against hepatocellular carcinoma cell lines compared with sorafenib [1]: higher inhibition activity than sorafenib
